One assay concerns the target T1, EGFR mutant T790M (Homo sapiens, UniProt P00533, T790M).
T1 construct: truncated human JAK3, EGFR mutants such as del E746-A750; purchased Carna Biosciences
The assay can be described thus: Kinase inhibition assay, EGFR mutant T790M.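 Also: truncated human EGFR mutant enzyme preincubated two hours with compound, then ATP plus ULight-PolyGT peptide for one hour, Europium-labeled antibody LANCE detection, IC50.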 The settings on record: biochemical potency.

For assay [1], the target named is T2, EGFR mutant Del19 (E746-A750) (Homo sapiens, UniProt P00533, DEL746-750).
T2 construct: truncated human JAK3, EGFR mutants such as del E746-A750; purchased Carna Biosciences
Nature of the assay: Kinase inhibition assay, EGFR del E746-A750.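 Also: truncated human EGFR mutant kinase, two-hour preincubation with compound, then one-hour reaction with ATP and ULight-PolyGT peptide, LANCE Europium-antibody phosphorylation readout, IC50.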 It counts as biochemical. Particulars: read-out: EGFR mutants Del19 (E746-A750).

Another assay concerns the target T3, EGFR mutant L858R (Homo sapiens, UniProt P00533, L858R).
T3 construct: truncated human JAK3, EGFR mutants such as del E746-A750; purchased Carna Biosciences
Nature of the assay: Kinase inhibition assay, EGFR L858R.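 Also: truncated human EGFR L858R kinase with compound preincubation, ULight-PolyGT peptide phosphorylation read by Europium-antibody Lance detection, IC50.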 The settings on record: read-out: EGFR mutants L858R. It counts as biochemical.

Another assay concerns the target T4, EGFR mutant L858R/T790M (Homo sapiens, UniProt P00533, L858R/T790M).
T4 construct: truncated human JAK3, EGFR mutants such as del E746-A750; purchased Carna Biosciences
The assay can be described thus: Kinase inhibition assay, EGFR L858R/T790M.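 Also: truncated human enzyme preincubated two hours with compound, then one hour with one millimolar ATP and ULight-PolyGT peptide, Europium-labeled antibody detection, IC50.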 The settings on record: read-out: EGFR mutants L858R/T790M. It counts as biochemical.

The target of a further assay is T5, EGFR mutant Del19/T790M (Homo sapiens, UniProt P00533, DEL746-750/T790M).
T5 construct: truncated human JAK3, EGFR mutants such as del E746-A750; purchased Carna Biosciences
T5 sequence (P00533 with tags, fused parts or gaps DEL746-750/T790M limits assumed): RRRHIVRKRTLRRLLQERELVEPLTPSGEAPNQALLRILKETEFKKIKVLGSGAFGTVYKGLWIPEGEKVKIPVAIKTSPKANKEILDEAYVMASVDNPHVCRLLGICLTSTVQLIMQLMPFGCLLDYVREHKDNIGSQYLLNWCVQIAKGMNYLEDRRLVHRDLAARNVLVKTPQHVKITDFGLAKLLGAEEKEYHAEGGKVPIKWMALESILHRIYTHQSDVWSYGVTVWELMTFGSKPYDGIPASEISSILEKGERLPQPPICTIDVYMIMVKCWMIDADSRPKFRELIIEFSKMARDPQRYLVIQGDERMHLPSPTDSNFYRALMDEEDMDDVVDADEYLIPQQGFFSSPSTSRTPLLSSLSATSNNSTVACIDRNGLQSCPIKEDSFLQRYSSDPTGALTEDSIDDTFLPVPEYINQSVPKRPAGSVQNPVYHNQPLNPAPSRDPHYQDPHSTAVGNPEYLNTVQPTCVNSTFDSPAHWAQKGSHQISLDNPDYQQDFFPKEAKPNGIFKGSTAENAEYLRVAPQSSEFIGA
The assay can be described thus: Kinase inhibition assay, EGFR del E746-A750/T790M. Particulars: read-out: EGFR mutants Del19/T790M. It counts as biochemical.

A further assay concerns the target T6, JAK3 (Homo sapiens, UniProt P52333).
T6 construct: EGFR and JAK3 (JH1domain-catalytic) kinases, and mutant forms thereof; purchased Carna Biosciences
The assay can be described thus: Kinase inhibition assay, JAK3.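 Also: IC50 against purified truncated human JAK3 preincubated with compound, then reacted with ATP and ULight-Jak1 peptide, phosphorylation read by Europium-labeled antibody LANCE detection.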 The settings on record: biochemical potency.

A further assay concerns the target T7, SYK (Homo sapiens, UniProt P43405).
T7 construct: Purified human, full-length SYK, KDR; purchased Carna Biosciences
The assay can be described thus: Kinase inhibition assay, SYK.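 As to all read-outs here: purified full-length human SYK pre-incubated 30 min with compound, then ULight-TK peptide phosphorylation for 1 h, detected with Europium-labeled antibody in Lance buffer.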 The class given is biochemical. The settings on record: for IC50: biochemical potency.

A further assay concerns the target T8, KDR (Homo sapiens, UniProt P35968).
T8 construct: Purified human, full-length SYK, KDR; purchased Carna Biosciences
Nature of the assay: Kinase inhibition assay, KDR.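 As to all read-outs here: purified full-length human KDR, 30 min preincubation with compound, then 1 h reaction with ATP and Ulight-Jak1 peptide substrate, phosphorylation read by Lance Europium antibody detection.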 It counts as biochemical. Particulars: for IC50: biochemical potency.

In a further assay the test system is H2073 (EGFR wildtype). Nature of the assay: Cell viability assay, H2073.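 As to all read-outs here: NSCLC cell line whose survival relies on wildtype EGFR, treated with serially diluted compound, cytotoxic effect judged from remaining cell viability.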 Particulars: for IC50: NCI-H2073, cellular potency, 72-hour incubation, ATPLite. It counts as cell-based.
Assay [2] deals with PC9 (EGFR del E746-A750 mutant). Nature of the assay: Cell viability assay, PC9.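 As to all read-outs here: NSCLC PC9 cells, whose viability relies on EGFR del E746-A750, exposed to serially diluted compound for 72 h at 37 °C, ATPLite read-out, IC50, H2073 as EGFR wildtype line.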 It counts as cell-based. The settings on record: for Selectivity over wildtype, Wildtype vs mutant H2073/PC9 (fold): cellular potency ratio; for IC50: cellular potency, 72-hour incubation, ATPLite, read-out: EGFR Mutants PC9. (ATP-based viability assays read luminescence as a measure of living cells.)

For assay [3], the system named is H1975 (EGFR L858R/T790M mutant). Nature of the assay: Cell viability assay, H1975.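 As to all read-outs here: NSCLC cells whose survival relies on EGFR L858R/T790M, exposed 72 h to serially diluted compound, ATP-based viability readout, with the H2073 line (wildtype EGFR dependent) as wildtype comparator.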 The class given is cell-based. The settings on record: for IC50: Homo sapiens, NCI-H1975, cellular potency, 72-hour incubation, ATPLite, read-out: EGFR Mutants H1975; for Selectivity over wildtype, Wildtype vs mutant H2073/H1975 (fold): cellular potency ratio.
The target of another assay is T9, p-EGFR wildtype (Homo sapiens, UniProt P00533).
T9 construct: endogenous in cells; host or cells: H1299
T9 sequence (P00533 25-1210): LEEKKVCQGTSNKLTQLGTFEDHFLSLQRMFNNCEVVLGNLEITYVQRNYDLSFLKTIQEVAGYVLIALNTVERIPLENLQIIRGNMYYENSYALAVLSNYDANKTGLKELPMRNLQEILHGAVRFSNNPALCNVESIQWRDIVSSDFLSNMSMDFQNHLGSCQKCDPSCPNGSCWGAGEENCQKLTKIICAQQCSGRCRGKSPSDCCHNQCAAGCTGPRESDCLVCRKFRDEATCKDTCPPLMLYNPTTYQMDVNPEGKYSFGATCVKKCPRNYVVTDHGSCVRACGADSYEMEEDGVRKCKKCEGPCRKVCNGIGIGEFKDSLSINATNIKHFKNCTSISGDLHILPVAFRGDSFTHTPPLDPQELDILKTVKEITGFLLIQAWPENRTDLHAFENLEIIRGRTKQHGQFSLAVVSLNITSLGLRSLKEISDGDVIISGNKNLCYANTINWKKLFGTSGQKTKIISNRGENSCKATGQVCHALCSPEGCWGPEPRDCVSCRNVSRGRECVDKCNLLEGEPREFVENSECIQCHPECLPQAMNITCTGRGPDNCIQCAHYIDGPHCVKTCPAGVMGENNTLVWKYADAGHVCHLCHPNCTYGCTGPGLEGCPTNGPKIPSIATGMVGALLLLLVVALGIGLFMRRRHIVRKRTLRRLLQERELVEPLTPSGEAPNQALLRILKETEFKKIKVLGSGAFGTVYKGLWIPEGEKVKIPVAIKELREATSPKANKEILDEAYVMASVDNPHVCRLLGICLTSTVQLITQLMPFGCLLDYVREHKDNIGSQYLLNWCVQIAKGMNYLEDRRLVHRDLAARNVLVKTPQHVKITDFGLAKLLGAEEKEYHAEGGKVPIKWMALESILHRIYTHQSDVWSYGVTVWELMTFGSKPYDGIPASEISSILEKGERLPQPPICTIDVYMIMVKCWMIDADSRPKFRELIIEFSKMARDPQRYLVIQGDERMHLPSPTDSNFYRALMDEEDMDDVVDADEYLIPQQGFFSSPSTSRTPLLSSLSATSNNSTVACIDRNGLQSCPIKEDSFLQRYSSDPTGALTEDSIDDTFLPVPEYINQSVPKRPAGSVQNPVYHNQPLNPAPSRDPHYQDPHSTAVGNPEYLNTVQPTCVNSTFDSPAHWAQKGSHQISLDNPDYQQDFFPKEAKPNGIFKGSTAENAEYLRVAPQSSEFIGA
The assay can be described thus: Western analysis, H1299 p-EGFR wildtype. The class given is cell-based. The settings on record: for IC50: molecular potency, 4 hours, 3 nM EGF ligand.

A further assay concerns the target T10, p-EGFR del E746-A750 (Homo sapiens, UniProt P00533, DEL746-750).
T10 construct: phosphorylation of mutant EGFR in NSCLC lines PC9; endogenous in cells; host or cells: PC9
The assay can be described thus: Western analysis, PC9 p-EGFR del E746-A750. It counts as cell-based. Particulars: for Selectivity over wildtype: p-wildtype over p-EGFR del19: H1299 vs PC9; for IC50: molecular potency, 4 hours, read-out: PC9 p-EGFR del 19 (E746-A750).

The target of another assay is T11, p-EGFR L858R/T790M (Homo sapiens, UniProt P00533, L858R/T790M).
T11 construct: phosphorylation of mutant EGFR in NSCLC lines H1975; endogenous in cells; host or cells: H1975
T11 sequence (P00533 25-1210 T790M/L858R): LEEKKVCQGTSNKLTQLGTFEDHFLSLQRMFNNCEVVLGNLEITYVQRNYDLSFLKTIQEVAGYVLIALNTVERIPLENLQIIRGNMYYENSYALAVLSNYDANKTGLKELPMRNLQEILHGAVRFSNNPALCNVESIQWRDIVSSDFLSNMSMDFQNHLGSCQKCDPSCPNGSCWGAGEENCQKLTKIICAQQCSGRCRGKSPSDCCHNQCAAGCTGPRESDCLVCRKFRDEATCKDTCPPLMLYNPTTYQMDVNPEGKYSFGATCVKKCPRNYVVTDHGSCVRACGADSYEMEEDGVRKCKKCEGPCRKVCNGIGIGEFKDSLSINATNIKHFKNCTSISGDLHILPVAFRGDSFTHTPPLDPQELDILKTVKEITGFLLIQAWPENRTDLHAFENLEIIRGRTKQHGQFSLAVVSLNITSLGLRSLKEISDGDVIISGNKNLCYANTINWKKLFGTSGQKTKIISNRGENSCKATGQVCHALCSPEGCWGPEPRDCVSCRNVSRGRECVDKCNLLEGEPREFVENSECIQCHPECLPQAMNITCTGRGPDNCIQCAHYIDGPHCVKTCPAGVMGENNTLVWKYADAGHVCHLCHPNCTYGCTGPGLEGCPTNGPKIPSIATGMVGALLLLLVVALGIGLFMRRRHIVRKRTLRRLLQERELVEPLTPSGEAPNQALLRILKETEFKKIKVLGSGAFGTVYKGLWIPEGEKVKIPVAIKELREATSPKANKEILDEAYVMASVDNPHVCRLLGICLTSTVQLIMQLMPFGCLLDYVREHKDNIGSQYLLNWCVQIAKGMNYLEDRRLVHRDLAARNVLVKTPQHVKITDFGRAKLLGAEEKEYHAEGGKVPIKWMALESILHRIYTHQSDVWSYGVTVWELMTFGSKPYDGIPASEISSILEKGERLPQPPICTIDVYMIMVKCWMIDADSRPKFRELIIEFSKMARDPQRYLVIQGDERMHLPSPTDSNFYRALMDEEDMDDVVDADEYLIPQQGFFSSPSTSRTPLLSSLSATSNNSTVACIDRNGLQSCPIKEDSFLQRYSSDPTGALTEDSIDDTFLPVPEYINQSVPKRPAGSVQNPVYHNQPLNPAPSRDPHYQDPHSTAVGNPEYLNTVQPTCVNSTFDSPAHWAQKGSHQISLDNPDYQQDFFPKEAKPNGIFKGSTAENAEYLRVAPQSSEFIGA
The assay can be described thus: Western analysis, H1975 p-EGFR L858R/T790M. The settings on record: for Selectivity over wildtype: p-wildtype over p-EGFR L858R, T790M: H1299 vs H1975; for IC50: molecular potency, 4 hours. The class given is cell-based.

The mark [4] stands for this setting: approximate ATP Km concentration.

A value given as a limit tells only on which side of the number the result lay.

T1 sequence (P00533 669-1210 T790M limits assumed): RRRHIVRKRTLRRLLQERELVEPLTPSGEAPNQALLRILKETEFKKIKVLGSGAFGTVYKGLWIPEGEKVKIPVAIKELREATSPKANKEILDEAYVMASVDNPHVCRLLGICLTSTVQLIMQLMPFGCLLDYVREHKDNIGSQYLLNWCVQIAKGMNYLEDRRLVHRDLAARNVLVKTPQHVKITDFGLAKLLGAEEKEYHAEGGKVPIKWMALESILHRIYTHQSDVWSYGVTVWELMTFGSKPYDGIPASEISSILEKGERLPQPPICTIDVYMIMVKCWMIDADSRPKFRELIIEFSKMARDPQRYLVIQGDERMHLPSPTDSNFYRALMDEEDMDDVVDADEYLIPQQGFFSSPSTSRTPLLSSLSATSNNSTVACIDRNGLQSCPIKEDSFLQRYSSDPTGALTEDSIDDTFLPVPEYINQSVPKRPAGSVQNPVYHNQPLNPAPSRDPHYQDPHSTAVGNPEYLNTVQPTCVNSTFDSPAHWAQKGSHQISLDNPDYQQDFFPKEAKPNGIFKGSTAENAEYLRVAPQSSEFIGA
T10 sequence (P00533 with tags, fused parts or gaps DEL746-750): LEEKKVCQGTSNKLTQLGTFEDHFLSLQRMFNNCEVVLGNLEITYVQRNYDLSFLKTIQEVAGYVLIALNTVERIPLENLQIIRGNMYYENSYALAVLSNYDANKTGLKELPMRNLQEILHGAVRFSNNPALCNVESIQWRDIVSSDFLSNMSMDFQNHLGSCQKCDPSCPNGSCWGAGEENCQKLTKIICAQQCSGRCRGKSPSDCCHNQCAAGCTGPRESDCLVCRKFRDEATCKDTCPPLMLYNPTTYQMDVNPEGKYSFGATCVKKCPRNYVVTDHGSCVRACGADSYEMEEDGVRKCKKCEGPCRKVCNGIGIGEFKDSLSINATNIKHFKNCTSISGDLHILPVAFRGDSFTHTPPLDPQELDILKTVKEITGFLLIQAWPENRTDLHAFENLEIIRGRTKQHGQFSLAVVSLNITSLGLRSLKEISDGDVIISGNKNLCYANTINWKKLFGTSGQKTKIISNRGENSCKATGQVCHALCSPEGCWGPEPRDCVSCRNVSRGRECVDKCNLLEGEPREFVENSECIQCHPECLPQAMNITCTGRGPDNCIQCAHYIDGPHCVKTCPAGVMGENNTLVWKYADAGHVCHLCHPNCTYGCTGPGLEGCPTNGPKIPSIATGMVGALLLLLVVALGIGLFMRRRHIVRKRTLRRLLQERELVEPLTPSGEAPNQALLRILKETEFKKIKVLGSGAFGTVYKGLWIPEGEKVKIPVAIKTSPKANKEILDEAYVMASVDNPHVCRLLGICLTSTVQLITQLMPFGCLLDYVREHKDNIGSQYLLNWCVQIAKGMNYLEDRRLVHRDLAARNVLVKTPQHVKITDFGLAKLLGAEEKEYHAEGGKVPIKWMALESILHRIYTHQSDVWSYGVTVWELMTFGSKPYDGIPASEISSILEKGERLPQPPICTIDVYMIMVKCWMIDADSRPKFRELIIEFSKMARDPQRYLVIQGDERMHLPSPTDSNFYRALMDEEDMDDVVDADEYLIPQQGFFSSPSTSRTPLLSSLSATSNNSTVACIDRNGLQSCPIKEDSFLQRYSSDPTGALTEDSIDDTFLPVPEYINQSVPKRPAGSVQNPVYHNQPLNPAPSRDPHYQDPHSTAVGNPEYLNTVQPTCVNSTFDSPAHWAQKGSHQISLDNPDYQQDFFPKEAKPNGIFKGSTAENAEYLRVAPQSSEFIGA
T6 sequence (P52333 822-1111 limits assumed): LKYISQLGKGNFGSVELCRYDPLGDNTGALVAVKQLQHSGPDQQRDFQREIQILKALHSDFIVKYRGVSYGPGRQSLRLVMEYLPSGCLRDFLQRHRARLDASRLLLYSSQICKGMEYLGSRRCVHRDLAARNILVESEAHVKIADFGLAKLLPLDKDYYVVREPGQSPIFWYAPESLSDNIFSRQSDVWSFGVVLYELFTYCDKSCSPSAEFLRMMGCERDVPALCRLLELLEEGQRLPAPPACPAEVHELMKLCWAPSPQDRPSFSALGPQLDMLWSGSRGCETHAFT

Turning to `C=CC(=O)Nc1cc(Nc2nccc(-n3cc(CN(C)C)c(C)n3)n2)c(OC)cc1N1CCOCC1` [Compound 46, N-(5-(4-(4-((dimethylamino)methyl)-3-methyl-1H-pyrazol-1-yl)pyrimidin-2-ylamino)-4-methoxy-2-morpholinophenyl)acrylamide], the IC50 (on EGFR mutant T790M; in assay [1]; at EGFR mutant L858R; on EGFR mutant L858R/T790M; on EGFR mutant Del19/T790M; at JAK3) was < 20 nM throughout. For the same compound, the IC50 against SYK was 201 to 1000 nM; on KDR, > 1000 nM; in the assay on H2073 (EGFR wildtype) it was > 1000 nM; in [2], < 20 nM; in [3], 20 to 200 nM; on p-EGFR wildtype it was 20 to 200 nM. Further, the IC50 on p-EGFR del E746-A750 and on p-EGFR L858R/T790M was < 20 nM throughout. In addition, in [2], the “Selectivity over wildtype, Wildtype vs mutant H2073/PC9 (fold)” value (“Selectivity … vs mutant H2073/PC9 (fold)” for short) is on record as >200 fold. The “Selectivity over wildtype, Wildtype vs mutant H2073/H1975 (fold)” value (shortened to “Selectivity … vs mutant H2073/H1975 (fold)”) in [3] is on record as 101-200 fold. Moreover, the “Selectivity over wildtype: p-wildtype over p-EGFR del19” value (from here on “Selectivity … over p-EGFR del19”) on p-EGFR del E746-A750 was 20-100 fold. For the same compound, the “Selectivity over wildtype: p-wildtype over p-EGFR L858R, T790M” value (from here on “Selectivity … over p-EGFR L858R, T790M”) at p-EGFR L858R/T790M is recorded as 20-100 fold.
`C=CC(=O)Nc1cc(Nc2nccc(-n3cc(CN(C)C)c(-c4ccccc4)n3)n2)c(OC)cc1N1CCOCC1` [Compound 73, N-(5-(4-(4-((dimethylamino)methyl)-3-phenyl-1H-pyrazol-1-yl)pyrimidin-2-ylamino)-4-methoxy-2-morpholinophenyl)acrylamide]: the IC50 (against EGFR mutant T790M; in [1]; at EGFR mutant L858R; at EGFR mutant L858R/T790M; at EGFR mutant Del19/T790M; against JAK3) was < 20 nM in each case. Moreover, the IC50 is 201 to 1000 nM at SYK; > 1000 nM against KDR; > 1000 nM with H2073 (EGFR wildtype); < 20 nM in [2]; < 20 nM in assay [3]; 201 to 1000 nM against p-EGFR wildtype. For the same compound, the IC50 on p-EGFR del E746-A750 and against p-EGFR L858R/T790M was < 20 nM throughout. Moreover, on SYK (setting [4]), the “inhibition of the kinase activity of SYK (in words)” value is recorded as “poorly inhibit”. Moreover, the “inhibition of the kinase activity of KDR (in words)” value on KDR (setting [4]) was “poorly inhibit”. Further, the “inhibition in H2073 cell (in words)” value with H2073 (EGFR wildtype) (cell viability) is recorded as “not in H2073”. Also, the “inhibition in PC9 cell (in words)” value in assay [2] (cell viability) is given as “potent inhibition”. The “Selectivity … vs mutant H2073/PC9 (fold)” value in assay [2] was >200 fold; in assay [2] (listed as compound 73), > 200 fold. In assay [3] (cell viability), the “inhibition in H1975 cell (in words)” value is listed as “potent inhibition”. In addition, the “Selectivity … vs mutant H2073/H1975 (fold)” value in [3] is recorded as >200 fold; in assay [3] (listed as compound 73), > 200 fold. For the same compound, the “inhibition against p-EGFR wildtype (in words)” value against p-EGFR wildtype (Western, FIG. 1) is listed as “not p-EGFR wildtype”. Besides, the “Selectivity … over p-EGFR del19” value at p-EGFR del E746-A750 is listed as 20-100 fold. For the same compound, the “inhibition against p-EGFR del E746-A750 (in words)” value at p-EGFR del E746-A750 (Western, FIG. 1) is on record as “potent inhibition”. The “Selectivity … over p-EGFR L858R, T790M” value on p-EGFR L858R/T790M is 20-100 fold. Moreover, the “inhibition against p-EGFR L858R/T790M (in words)” value at p-EGFR L858R/T790M (Western, FIG. 1) was “potent inhibition”.
On to `C=CC(=O)Nc1cc(Nc2nccc(-n3cc(CN(C)C)c(C4CC4)n3)n2)c(OC)cc1N1CCOCC1` [Compound 74, N-(5-(4-(3-cyclopropyl-4-((dimethylamino)methyl)-1H-pyrazol-1-yl)pyrimidin-2-ylamino)-4-methoxy-2-morpholinophenyl)acrylamide], for which the IC50 (at EGFR mutant T790M; in assay [1]; on EGFR mutant L858R; at EGFR mutant L858R/T790M; at EGFR mutant Del19/T790M; on JAK3) was < 20 nM each time. Moreover, the IC50 against SYK was 20 to 200 nM; against KDR, > 1000 nM; in the assay on H2073 (EGFR wildtype) it was > 1000 nM; in assay [2], < 20 nM; in [3] it was < 20 nM; against p-EGFR wildtype, 201 to 1000 nM. In addition, the IC50 on p-EGFR del E746-A750 and at p-EGFR L858R/T790M was < 20 nM in each case. Further, the “Selectivity … vs mutant H2073/PC9 (fold)” value in assay [2] is on record as >200 fold. Moreover, the “Selectivity … vs mutant H2073/H1975 (fold)” value in [3] is >200 fold. Moreover, the “Selectivity … over p-EGFR del19” value at p-EGFR del E746-A750 is 101-200 fold. Further, at p-EGFR L858R/T790M, the “Selectivity … over p-EGFR L858R, T790M” value is recorded as 20-100 fold.
`C=CC(=O)Nc1cc(Nc2nccc(-n3cc(CN4CCC4)c(-c4ccccc4)n3)n2)c(OC)cc1N1CCOCC1` [Compound 78, N-(5-(4-(4-(azetidin-1-ylmethyl)-3-phenyl-1H-pyrazol-1-yl)pyrimidin-2-ylamino)-4-methoxy-2-morpholinophenyl)acrylamide]: the IC50 against EGFR mutant T790M is < 20 nM; in [1], < 20 nM; at EGFR mutant L858R, < 20 nM; at EGFR mutant L858R/T790M, < 20 nM; on EGFR mutant Del19/T790M it was < 20 nM; at JAK3, 20 to 200 nM. Further, the IC50 against SYK is > 1000 nM; against KDR, > 1000 nM; in the assay on H2073 (EGFR wildtype), > 1000 nM; in [2] it was < 20 nM; in [3], < 20 nM; at p-EGFR wildtype, > 1000 nM. Also, the IC50 on p-EGFR del E746-A750 and on p-EGFR L858R/T790M was < 20 nM in each case. The “Selectivity … vs mutant H2073/PC9 (fold)” value in assay [2] is >200 fold. The “Selectivity … vs mutant H2073/H1975 (fold)” value in [3] is >200 fold. In addition, the “Selectivity … over p-EGFR del19” value on p-EGFR del E746-A750 is >200 fold. Moreover, the “Selectivity … over p-EGFR L858R, T790M” value on p-EGFR L858R/T790M was 101-200 fold.
`C=CC(=O)Nc1cc(Nc2ncc(C)c(-n3cc(CN(C)C)c(C4CC4)n3)n2)c(OC)cc1N1CCOCC1` [Compound 122, N-(5-(4-(3-cyclopropyl-4-((dimethylamino)methyl)-1H-pyrazol-1-yl)-5-methylpyrimidin-2-ylamino)-4-methoxy-2-morpholinophenyl)acrylamide]: the IC50 (on EGFR mutant T790M; in [1]; on EGFR mutant L858R; on EGFR mutant L858R/T790M; at EGFR mutant Del19/T790M; at JAK3) was < 20 nM throughout. Besides, the IC50 against SYK is 20 to 200 nM; at KDR it was > 1000 nM; with H2073 (EGFR wildtype) it was > 1000 nM; in assay [2], < 20 nM; in [3], < 20 nM; against p-EGFR wildtype, 201 to 1000 nM. The IC50 at p-EGFR del E746-A750 and on p-EGFR L858R/T790M was < 20 nM in each case. Also, the “Selectivity … vs mutant H2073/PC9 (fold)” value in assay [2] was >200 fold. Further, the “Selectivity … vs mutant H2073/H1975 (fold)” value in [3] was >200 fold. Moreover, the “Selectivity … over p-EGFR del19” value on p-EGFR del E746-A750 is 20-100 fold. Further, the “Selectivity … over p-EGFR L858R, T790M” value on p-EGFR L858R/T790M is listed as 20-100 fold.
